Test [1] deals with KMS.12.BM cell line (human myeloma). Kind of test: KMS.12.BM cell viability assay. The following applies: KMS.12.BM cells, 3 days, Cell Titer-GLO ATP quantitation, read-out: KMS cellular IC50. The test is classed as cell-based. Here is the method: KMS. 12.BM cell line (human myeloma) was purchased from JCRB (Osaka, Japan) and maintained in RPMI with 10% FBS culture medium. To measure the cytotoxic activity of the compounds through ATP quantitation, the KMS. 12.BM cells are plated in the RPMI culture medium at 5000 cells/well/per 100 μL into a 96-well polystyrene clear black tissue culture plate (Greiner-bio-one through VWR, NJ), in the presence or absence of a concentration range of test compounds. After 3 days, […] Cell Titer-GLO Luminescent (Promega, Madison, Wis.) cell culture agent is added to each well for 10 minutes at room temperature to stabilize the luminescent signal. This determines the number of viable cells in culture based on quantitation of the ATP present, which signals the presence of metabolically active cells. Luminescence is measured with the Top Count 384 (Packard Bioscience through Perkin Elmer, Boston, Mass.). […] IC50 data for the Examples is presented in Table 4 as determined by Assay B1.
A general note: Cellular ATP, detected with luciferase, serves as a proxy for viable cell number.

A further test addresses BRD4-BD1 (Homo sapiens (Human), UniProt O60885). Description: BRD4 AlphaScreen assay (BRD4-BD1). The test is classed as binding. The following applies: H4Ac4 peptide, 3.8 nM BRD4-BD1, read-out: BRD4 BD-1 enzyme IC50. Here is the method:
(§1) BRD4-BD1 and BRD4-BD2 assays were conducted in white 384-well polystyrene plate in a final volume of 20 μL for BD1 and 40 μL for BD2. Inhibitors were first serially diluted in DMSO and added to the plate wells before the addition of other reaction components. The final concentration of DMSO in the assay was 1.25% (BD1) and 0.83% (BD2). The assays were carried out at room temperature for 75 min. in the assay buffer (50 mM HEPES, pH 7.4, 100 mM NaCl, 0.05% CHAPS, 0.01% BSA), containing 50 nM Biotin-labeled tetra-acetylated histone H4 peptide (H4Ac4), 3.8 nM (BRD4-BD1, BPS Bioscience #31040) or 20 nM (BRD4-BD2, BPS Bioscience #31041). The reaction followed by the addition of 20 μL of assay buffer supplemented with Streptavidin donor beads (PerkinElmer 6760002) and GSH Acceptor beads (PerkinElmer-AL109C) at 4 μg/mL under reduced light. After plate sealing, the plate was incubated in the dark at room temperature for 75 min. before reading on a PHERAstar FS plate reader (BMG Labtech). IC50 determination was performed by fitting the curve of percent control activity versus the log of the inhibitor concentration using the GraphPad Prism 5.0 software.
In general terms: Alpha assays give light when donor and acceptor beads are brought close together.

The next test addresses BRD4-BD2 (Homo sapiens (Human), UniProt O60885). Description: BRD4 AlphaScreen assay (BRD4-BD2). It counts as binding. To be noted: H4Ac4 peptide, 20 nM BRD4-BD2, read-out: BRD4 BD-2 enzyme IC50. On the procedure: as §1

Where a name gives a salt, the structure may show the parent alone. Read-outs that look alike come from different tables or passages of the source.

As a reminder, the IC50 is the point on the concentration scale where inhibition reaches its midpoint.

Turning to `Cc1nnc2ccc3c(cc(-c4cc[nH]n4)n3Cc3cccc(CN4CCC4)c3)n12` [Example 182, 6-[3-(Azetidin-1-ylmethyl)benzyl]-1-methyl-7-(1H-pyrazol-3-yl)-6H-pyrrolo[2,3-e][1,2,4]triazolo[4,3-a]pyridine tris(trifluoroaceate) Salt], the IC50 in test [1] was at most 1 µM.

For `Cc1cc2c(cc(N[C@H]3CCN(C)[C@@H](C)C3)c3nnc(C)n32)n1Cc1ccccc1` (racemic) [Example 224, 6-Benzyl-N-[(2S,4S)-1,2-dimethylpiperidin-4-yl]-1,7-dimethyl-6H-pyrrolo[2,3-e][1,2,4]triazolo[4,3-a]pyridin-4-amine and 6-Benzyl-N-[(2R,4R)-1,2-dimethylpiperidin-4-yl]-1,7-dimethyl-6H-pyrrolo[2,3-e][1,2,4]triazolo[4,3-a]pyridin-4-amine (Racemic Mixture Prepared)], the IC50 at BRD4-BD1 was at most 0.1 µM; at BRD4-BD2 it was at most 0.1 µM; in test [1] (Homo sapiens, 72 h), at most 1 µM.

Turning to `Cc1nnc2ccc3c(cc(-c4ccn(CCC(=O)N(C)C)n4)n3Cc3cccc(Cl)c3)n12` [Example 103, 3-{3-[6-(3-chlorobenzyl)-1-methyl-6H-pyrrolo[2,3-e][1,2,4]triazolo[4,3-a]pyridin-7-yl]-1H-pyrazol-1-yl}-N,N-dimethylpropanamide], the IC50 in test [1] (Homo sapiens, 72 h) is at most 1 µM.

The record behind these values is patent US11091484B2, “Tricyclic heterocycles as BET protein inhibitors” (Incyte Corporation, priority 2013, dated 2021).
